# Source: patent publication US9440982B2 (Eolas Therapeutics, Inc., priority 2012, dated 2016)
# Biological target: T1, CYP3A4 (Homo sapiens, UniProt P08684)
# T1 construct: pre-incubated with human liver microsomes and NADPH; from tissue; host or cells: human liver microsomes
# Assay: Cytochrome P450 inhibition assay (midazolam hydroxylation)
# Format: in vitro ADME
# Conditions: human, human liver microsomes, probe midazolam (hydroxylation to 1′-hydroxymidazolam), 10 μM test compound, midazolam at approximately its Km
# Procedure: Compounds were tested for the potential to induce drug-drug interactions by inhibition of the cytochrome P450 3A4 isoform. The assay evaluated the metabolism of a specific marker substrate (CYP3A4, midazolam hydroxylation to 1′-hydroxymidazolam) in the presence or absence of 10 μM test compound. The concentration of the marker substrate was approximately its Km (Dixit et al., Biopharm. Drug Dispos. 2007, 28(5), 257-262). A specific inhibitor for the isoform was included in each run to validate the system. An appropriate positive control inhibitor was used. Mechanism-based inhibition was investigated where warranted using a classical method. To evaluate time-dependent inhibition, parallel samples may have been included where […] was pre-incubated with human liver microsomes and NADPH for 30 min prior to the addition of the P450 substrate. The percent inhibition of the pre-incubated and non-pre-incubated samples were compared as a preliminary evaluation of time-dependent inhibition.
# T1 sequence (P08684 whole entry): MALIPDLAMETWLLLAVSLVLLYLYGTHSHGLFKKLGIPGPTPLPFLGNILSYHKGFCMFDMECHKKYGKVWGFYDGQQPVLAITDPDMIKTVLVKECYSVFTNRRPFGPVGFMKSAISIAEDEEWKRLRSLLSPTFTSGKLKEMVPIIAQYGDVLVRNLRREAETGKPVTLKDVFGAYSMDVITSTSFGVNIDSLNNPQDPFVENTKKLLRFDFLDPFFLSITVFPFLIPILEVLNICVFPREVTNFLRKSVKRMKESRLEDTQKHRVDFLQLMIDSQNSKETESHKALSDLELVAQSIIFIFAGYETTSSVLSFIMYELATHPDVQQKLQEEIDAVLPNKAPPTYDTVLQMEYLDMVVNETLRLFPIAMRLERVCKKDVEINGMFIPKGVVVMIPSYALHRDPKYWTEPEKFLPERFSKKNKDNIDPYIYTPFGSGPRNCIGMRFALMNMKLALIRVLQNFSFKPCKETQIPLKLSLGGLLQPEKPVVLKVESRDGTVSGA
row,SMILES,inhibition at 10 µM [%]
1,"Cc1cc(F)c(-c2ncccn2)c(C(=O)N2CCC[C@@H](C)[C@H]2CNc2ccc(C(F)(F)F)cn2)c1 [Example A374, (3-fluoro-5-methyl-2-(pyrimidin-2-yl)phenyl)((2S,3R)-3-methyl-2-(((5-(trifluoromethyl)pyridin-2-yl)amino)methyl)piperidin-1-yl)methanone]",76
2,"Cc1ccc(-n2nccn2)c(C(=O)N2CCC[C@@H](C)[C@H]2CNc2ncc3c(C)cccc3n2)c1 [Example A214, ((2S,3R)-3-Methyl-2-(((5-methylquinazolin-2-yl)amino)methyl)piperidin-1-yl)(5-methyl-2-(2H-1,2,3-triazol-2-yl)phenyl)methanone]",69
3,"Cc1cccc(C(=O)N2CCC[C@@H](C)[C@H]2CNc2ncc(Cl)cn2)c1-n1nccn1 [Example A268, ((2S,3R)-2-(((5-Chloropyrimidin-2-yl)amino)methyl)-3-methylpiperidin-1-yl)(3-methyl-2-(2H-1,2,3-triazol-2-yl)phenyl)methanone]",60
4,"Cc1ccc(-n2nccn2)c(C(=O)N2CCC[C@@H](C)[C@H]2CNc2cccc(C#N)n2)c1 [Example A81, 6-((((2S,3R)-3-Methyl-1-(5-methyl-2-(2H-1,2,3-triazol-2-yl)benzoyl)piperidin-2-yl)methyl)amino)picolinonitrile]",67
5,"Cc1ccc(-c2cccc(C)n2)c(C(=O)N2CCC[C@@H](C)[C@H]2CNc2ccc(C(F)(F)F)cn2)c1 [Example A104, ((2S,3R)-3-Methyl-2-(((5-(trifluoromethyl)pyridin-2-yl)amino)methyl)piperidin-1-yl)(5-methyl-2-(6-methylpyridin-2-yl)phenyl)methanone]",91
6,"COc1cccnc1NC[C@@H]1[C@H](C)CCCN1C(=O)c1cc(C)ccc1-c1cnn(C)c1 [Example A101, ((2S,3R)-2-(((3-Methoxypyridin-2-yl)amino)methyl)-3-methylpiperidin-1-yl)(5-methyl-2-(1-methyl-1H-pyrazol-4-yl)phenyl)methanone]",83
7,"COc1ncc(-c2ccc(C)cc2C(=O)N2CCC[C@@H](C)[C@H]2CNc2nc3cc(Cl)ccc3o2)cn1 [Example A39, ((2S,3R)-2-(((5-Chlorobenzo[d]oxazol-2-yl)amino)methyl)-3-methylpiperidin-1-yl) (2-(2-methoxypyrimidin-5-yl)-5-methylphenyl)methanone]",96
8,"Cc1ccc(-c2cncs2)c(C(=O)N2CCC[C@@H](C)[C@H]2CNc2ccc(C(F)(F)F)cn2)c1 [Example A25, ((2S,3R)-3-Methyl-2-(((5-(trifluoromethyl)pyridin-2-yl)amino)methyl)piperidin-1-yl)(5-methyl-2-(thiazol-5-yl)phenyl)methanone]",99
9,"Cc1ccc(-c2ncccn2)c(C(=O)N2CCC(F)(F)C[C@H]2CNc2ncc(C(F)(F)F)cn2)c1 [Example A312, (S)-(4,4-Difluoro-2-(((5-(trifluoromethyl)pyrimidin-2-yl)amino)methyl)piperidin-1-yl)(5-methyl-2-(pyrimidin-2-yl)phenyl)methanone]",40
10,"Cc1ccc(-n2cccn2)c(C(=O)N2CCC[C@@H](C)[C@H]2CNc2ncc(F)cn2)c1 [Example A170, ((2S,3R)-2-(((5-Fluoropyrimidin-2-yl)amino)methyl)-3-methylpiperidin-1-yl)(5-methyl-2-(1H-pyrazol-1-yl)phenyl)methanone]",66
11,"Cc1ccc(-c2ccc(C)cc2C(=O)N2CCC[C@@H](C)[C@H]2CNc2ccc(C(F)(F)F)cn2)nc1 [Example A118, ((2S,3R)-3-Methyl-2-(((5-(trifluoromethyl)pyridin-2-yl)amino)methyl)piperidin-1-yl)(5-methyl-2-(5-methylpyridin-2-yl)phenyl)methanone]",95
12,"Cc1ccc(-c2cnn(C)c2)c(C(=O)N2CCC[C@@H](C)[C@H]2CNc2ncc(C(F)(F)F)cc2F)c1 [Example A83, ((2S,3R)-2-(((3-Fluoro-5-(trifluoromethyl)pyridin-2-yl)amino)methyl)-3-methylpiperidin-1-yl)(5-methyl-2-(1-methyl-1H-pyrazol-4-yl)phenyl)methanone]",97
13,"Cc1ccc(-c2cccnn2)c(C(=O)N2CCC[C@@H](C)[C@H]2CNc2ncc(C(F)(F)F)cn2)c1 [Example A198, ((2S,3R)-3-Methyl-2-(((5-(trifluoromethyl)pyrimidin-2-yl)amino)methyl)piperidin-1-yl)(5-methyl-2-(pyridazin-3-yl)phenyl)methanone]",51
14,"Cc1ccc(-c2cnn(C)c2)c(C(=O)N2CCC[C@@H](C)[C@H]2CNc2ncc(F)cc2F)c1 [Example A96, ((2S,3R)-2-(((3,5-Difluoropyridin-2-yl)amino)methyl)-3-methylpiperidin-1-yl)(5-methyl-2-(1-methyl-1H-pyrazol-4-yl)phenyl)methanone]",92
15,"Cc1ccc(-n2cc(C)nn2)c(C(=O)N2CCC[C@@H](C)[C@H]2CNc2ccc(C(F)(F)F)cn2)c1 [Example A113, ((2S,3R)-3-Methyl-2-(((5-(trifluoromethyl)pyridin-2-yl)amino)methyl)piperidin-1-yl)(5-methyl-2-(4-methyl-1H-1,2,3-triazol-1-yl)phenyl)methanone]",98
16,"Cc1ccc(-n2nccn2)c(C(=O)N2CCC[C@@H](C)[C@H]2CNc2ncc(F)cc2F)c1 [Example A172, ((2S,3R)-2-(((3,5-Difluoropyridin-2-yl)amino)methyl)-3-methylpiperidin-1-yl)(5-methyl-2-(2H-1,2,3-triazol-2-yl)phenyl)methanone]",76
17,"Cc1ccc(-c2cccnc2)c(C(=O)N2CCC[C@@H](C)[C@H]2CNc2nc3cc(Cl)ccc3o2)c1 [Example A31, ((2S,3R)-2-(((5-Chlorobenzo[d]oxazol-2-yl)amino)methyl)-3-methylpiperidin-1-yl)(5-methyl-2-(pyridin-3-yl)phenyl)methanone]",98
18,"Cc1ccc(-c2ccnn2C)c(C(=O)N2CCC[C@@H](C)[C@H]2CNc2nc3cc(Cl)ccc3o2)c1 [Example A36, ((2S,3R)-2-(((5-Chlorobenzo[d]oxazol-2-yl)amino)methyl)-3-methylpiperidin-1-yl)(5-methyl-2-(1-methyl-1H-pyrazol-5-yl)phenyl)methanone]",97
19,"Cc1ccc(C#N)c(C(=O)N2CCC[C@@H](C)[C@H]2CNc2ccc(C(F)(F)F)cn2)c1 [Example A22, 4-Methyl-2-((2S,3R)-3-methyl-2-(((5-(trifluoromethyl)pyridin-2-yl)amino)methyl)piperidine-1-carbonyl)benzonitrile]",72
20,"Cc1ccc(-n2nccn2)c(C(=O)N2CCC[C@@H](C)[C@H]2CNc2ncc(C#N)cc2F)n1 [Example A193, 5-Fluoro-6-((((2S,3R)-3-methyl-1-(6-methyl-3-(2H-1,2,3-triazol-2-yl)picolinoyl)piperidin-2-yl)methyl)amino)nicotinonitrile]",45
21,"Cc1ccc(-c2cnn(C)c2)c(C(=O)N2CCC[C@@H](C)[C@H]2CNc2nnc(C(F)(F)F)s2)c1 [Example A103, ((2S,3R)-3-Methyl-2-(((5-(trifluoromethyl)-1,3,4-thiadiazol-2-yl)amino)methyl)piperidin-1-yl)(5-methyl-2-(1-methyl-1H-pyrazol-4-yl)phenyl)methanone]",95
22,"Cc1ccc(-c2ccc(C)nc2)c(C(=O)N2CCC[C@@H](C)[C@H]2CNc2nc3cc(Cl)ccc3o2)c1 [Example A38, ((2S,3R)-2-(((5-Chlorobenzo[d]oxazol-2-yl)amino)methyl)-3-methylpiperidin-1-yl)(5-methyl-2-(6-methylpyridin-3-yl)phenyl)methanone]",96
23,"Cc1ccc(-n2ccc(C)n2)c(C(=O)N2CCC[C@@H](C)[C@H]2CNc2ncc(C#N)cn2)c1 [Example A131, 2-((((2S,3R)-3-Methyl-1-(5-methyl-2-(3-methyl-1H-pyrazol-1-yl)benzoyl)piperidin-2-yl)methyl)amino)pyrimidine-5-carbonitrile]",84
24,"Cc1ccc(-c2nccs2)c(C(=O)N2CCC[C@@H](C)[C@H]2CNc2nc3cc(Cl)ccc3o2)c1 [Example A30, ((2S,3R)-2-(((5-Chlorobenzo[d]oxazol-2-yl)amino)methyl)-3-methylpiperidin-1-yl)(5-methyl-2-(thiazol-2-yl)phenyl)methanone]",97
25,"Cc1ccc(-c2cncn2C)c(C(=O)N2CCC[C@@H](C)[C@H]2CNc2ccc(C(F)(F)F)cn2)c1 [Example A26, ((2S,3R)-3-Methyl-2-(((5-(trifluoromethyl)pyridin-2-yl)amino)methyl)piperidin-1-yl)(5-methyl-2-(1-methyl-1H-imidazol-5-yl)phenyl)methanone]",99
26,"Cc1ccc(-n2cncn2)c(C(=O)N2CCC[C@@H](C)[C@H]2CNc2nc3cc(Cl)ccc3o2)c1 [Example A28, ((2S,3R)-2-(((5-Chlorobenzo[d]oxazol-2-yl)amino)methyl)-3-methylpiperidin-1-yl)(5-methyl-2-(1H-1,2,4-triazol-1-yl)phenyl)methanone]",95
27,"Cc1ccc(-n2ccc(C)n2)c(C(=O)N2CCC[C@@H](C)[C@H]2CNc2ccc(C(F)(F)F)cn2)c1 [Example A108, ((2S,3R)-3-Methyl-2-(((5-(trifluoromethyl)pyridin-2-yl)amino)methyl)piperidin-1-yl)(5-methyl-2-(3-methyl-1H-pyrazol-1-yl)phenyl)methanone]",88
